Measured values reported in patent US4130644A, “7-Acylamine-3-(sulfoalkyl substituted oxadiazolylthiomethyl) cephalosporins and pharmaceutical compositions containing them” (SmithKline Corporation, priority 1977, dated 1978).
Converted amounts (≈) assume the structure as drawn.

Tests used:
[1] = test system: Kleb. pneumo. 4200; assay: in vivo mouse protection test; settings: sc, Kleb. pneumo. 4200, subcutaneous injection
Description: (§1) 4200 upon subcutaneous injection.

[2] = test system: E. coli 12140; assay: in vivo mouse protection test; settings: Escherichia coli, sc, E. coli 12140, subcutaneous injection
Description: as §1

[3] = test system: E. coli HH 33779; assay: in vitro minimum inhibitory concentration (MIC); format: cell-based; settings: Escherichia coli, HH33779; E. coli HH 33779, in vitro
Description: (§2) The compounds of Formula I have exceptional antibacterial activity against both Gram-positive and Gram-negative organisms. Minimum inhibitory concentrations (MIC's) range from 0.2 to <200 μg./ml. in in vitro testing. Test results for the compound 7-D-mandelamido-3-(5-sulfomethyl-1,3,4-oxadiazol-2-ylthiomethyl)-3-cephem- 4-carboxylic acid are given below: […]

[4] = test system: E. coli SK 12140; assay: in vitro minimum inhibitory concentration (MIC); format: cell-based; settings: Escherichia coli, SK12140; E. coli SK 12140, in vitro
Description: as §2

[5] = test system: S. villaluz SK 70390; assay: in vitro minimum inhibitory concentration (MIC); format: cell-based; settings: S. villaluz SK 70390, in vitro
Description: as §2

[6] = test system: Proteus morgani 179; assay: in vitro minimum inhibitory concentration (MIC); format: cell-based; settings: Proteus morgani 179, in vitro
Description: as §2

[7] = test system: Entero. cloacae HH 31254; assay: in vitro minimum inhibitory concentration (MIC); format: cell-based; settings: Enterobacter cloacae, HH31254; Entero. cloacae HH 31254, in vitro
Description: as §2

[8] = test system: Shigella HH 117; assay: in vitro minimum inhibitory concentration (MIC); format: cell-based; settings: HH117; Shigella HH 117, in vitro
Description: as §2

[9] = test system: S. aureus SK 23390; assay: in vitro minimum inhibitory concentration (MIC); format: cell-based; settings: Staphylococcus aureus, SK23390; S. aureus SK 23390, in vitro
Description: as §2

[10] = test system: Strep. faecalis HH 34358; assay: in vitro minimum inhibitory concentration (MIC); format: cell-based; settings: Enterococcus faecalis, HH34358; Strep. faecalis HH 34358, in vitro
Description: as §2

[11] = test system: Salmonella ATCC 12176; assay: in vitro minimum inhibitory concentration (MIC); format: cell-based; settings: ATCC12176; Salmonella ATCC 12176, in vitro
Description: as §2

[12] = test system: Serrata marc. ATCC 13880; assay: in vitro minimum inhibitory concentration (MIC); format: cell-based; settings: Serrata marc. ATCC 13880, in vitro
Description: as §2

[13] = test system: Kleb. pneumo. SK 4200; assay: in vitro minimum inhibitory concentration (MIC); format: cell-based; settings: Kleb. pneumo. SK 4200, in vitro
Description: as §2

[14] = test system: Kleb. pneumo. SK 1200; assay: in vitro minimum inhibitory concentration (MIC); format: cell-based; settings: Kleb. pneumo. SK 1200, in vitro
Description: as §2

[15] = test system: S. aureus HH 127; assay: in vitro minimum inhibitory concentration (MIC); format: cell-based; settings: Staphylococcus aureus, HH127; S. aureus HH 127, in vitro
Description: as §2

[16] = test system: Entero aerog. ATCC 13048; assay: in vitro minimum inhibitory concentration (MIC); format: cell-based; settings: Entero aerog. ATCC 13048, in vitro
Description: as §2

[17] = test system: Pseudo. aerug. HH 63; assay: in vitro minimum inhibitory concentration (MIC); format: cell-based; settings: Pseudo. aerug. HH 63, in vitro
Description: as §2

`O=C(O)C1=C(CSc2nnc(CS(=O)(=O)O)o2)CS[C@@H]2[C@H](NC(=O)[C@H](O)c3ccccc3)C(=O)N12` [7-D-Mandelamido-3-(5-sulfomethyl-1,3,4-oxadiazol-2-ylthiomethyl)-3-cephem-4-carboxylic acid] gave an ED50 [1] of 1.56 mg/kg, an ED50 [2] of 1.56 mg/kg and an MIC [3] of 3.1 µg/mL (≈ 5.71 µM). It also gave an MIC [4] of 1.6 µg/mL (≈ 2.95 µM), an MIC [5] of 200 µg/mL (≈ 369 µM) and an MIC [6] of 25 µg/mL (≈ 46.1 µM). For the same molecule, the MIC [7] was 1.6 µg/mL (≈ 2.95 µM), the MIC [8] was 0.8 µg/mL (≈ 1.47 µM) and the MIC [9] was 1.6 µg/mL (≈ 2.95 µM). For the same molecule, the MIC [10] was 50 µg/mL (≈ 92.2 µM), the MIC [11] was 1.6 µg/mL (≈ 2.95 µM) and the MIC [12] was 100 µg/mL (≈ 184 µM). For the same molecule, the MIC [13] was 1.6 µg/mL (≈ 2.95 µM), the MIC [14] was 0.8 µg/mL (≈ 1.47 µM) and the MIC [15] was 3.1 µg/mL (≈ 5.71 µM). The MIC [16] was 3.1 µg/mL (≈ 5.71 µM) and the MIC [17] was > 200 µg/mL.
